Test results published in patent US8273760B2, “Indolo[3,2-c]quinoline compounds” (Kaohsiung Medical University, priority 2008, dated 2012).

Experiments:
[1] = test system: UACC-62; assay: In vitro anticancer assay (NCI panel), UACC-62; assay type: cell-based; settings: Homo sapiens; UACC-62, melanoma
Description: (§1) Selected compounds were evaluated in vitro against the NCI's full panel of 60 cancer cell lines derived from nine cancer cell types, including: leukemia (CCRF-CEM, HL-60 (TB), K-562, MOLT-4, RPMI-8226, and SR); non-small cell lung cancer (A549/ATCC, EKVX, HOP-62, HOP-92, NCI-H226, NCI-H23, NCI-H322M, and NCI-H522); colon cancer (COLO 205, HCC-2998, HCT-116, HCT-15, HT29, KM12, and SW-620); CNS cancer (SF-268, SF-295, SF-539, SNB-19, SNB-75, and U251); melanoma (LOX IMVI, MALME-3M, M14, SK-MEL-2, SK-MEL-28, SK-MEL-5, UACC-62, and UACC-257); ovarian cancer (IGROV1, OVCAR-3, OVCAR-4, OVCAR-5, OVCAR-8, and SK-OV-3); renal cancer (786-0, A498, ACHN, CAKI-1, RXF 393, SN12C, TK-10, and UO-31); prostate cancer (PC-3 and DU-145); and breast cancer (MCF7, MCF7/ADR-RES, MDA-MB-231/ATCC, HS 578T, MDA-MB-435, MDA-N, and T-47D). For each compound, dose-response curves for each cell line were measured with five different drug concentrations, and the concentration causing 50% cell growth inhibition (GI50) compared with the control was calculated. The mean GI50 values of each tested compound for all the 60 tumor cell lines were also calculated.

[2] = test system: HOP-62; assay: In vitro anticancer assay (NCI panel), HOP-62; assay type: cell-based; settings: Homo sapiens; HOP-62, non-small cell lung cancer
Description: as §1

[3] = test system: K-562; assay: In vitro anticancer assay (NCI panel), K-562; assay type: cell-based; settings: Homo sapiens, K562; K-562, leukemia
Description: as §1

[4] = test system: HT29; assay: In vitro anticancer assay (NCI panel), HT29; assay type: cell-based; settings: Homo sapiens, HT-29; HT29, colon cancer
Description: as §1

[5] = test system: HL-60 (TB); assay: In vitro anticancer assay (NCI 60 cell line panel), HL-60 (TB); assay type: cell-based; settings: Homo sapiens, leukemia
Description: as §1

[6] = test system: HCT-116; assay: In vitro anticancer assay (NCI panel), HCT-116; assay type: cell-based; settings: Homo sapiens; HCT-116, colon cancer
Description: as §1

[7] = test system: SN12C; assay: In vitro anticancer assay (NCI panel), SN12C; assay type: cell-based; settings: Homo sapiens, renal cancer
Description: as §1

[8] = test system: NCI-H460; assay: In vitro anticancer assay (NCI panel), NCI-H460; assay type: cell-based; settings: Homo sapiens; NCI-H460, non-small cell lung cancer
Description: as §1

[9] = test system: LOX IMVI; assay: In vitro anticancer assay (NCI panel), LOX IMVI; assay type: cell-based; settings: Homo sapiens, melanoma
Description: as §1

[10] = test system: SF-268; assay: In vitro anticancer assay (NCI panel), SF-268; assay type: cell-based; settings: Homo sapiens; SF-268, CNS cancer
Description: as §1

[11] = test system: OVCAR-3; assay: In vitro anticancer assay (NCI panel), OVCAR-3; assay type: cell-based; settings: Homo sapiens; OVCAR-3, ovarian cancer
Description: as §1

[12] = test system: SF-295; assay: In vitro anticancer assay (NCI panel), SF-295; assay type: cell-based; settings: Homo sapiens; SF-295, CNS cancer
Description: as §1

[13] = test system: NCI's full panel of 60 cancer cell lines; assay: In vitro anticancer assay, all cell lines of the NCI panel; assay type: cell-based, human; settings: Homo sapiens, mean values of over all cell lines tested; read-out: MG MID (mean GI50)
Description: as §1

[14] = test system: OVCAR-8; assay: In vitro anticancer assay (NCI panel), OVCAR-8; assay type: cell-based; settings: Homo sapiens; OVCAR-8, ovarian cancer
Description: as §1

[15] = test system: MCF7; assay: In vitro anticancer assay (NCI panel), MCF7; assay type: cell-based; settings: Homo sapiens; MCF7, breast cancer
Description: as §1

[16] = test system: SR; assay: In vitro anticancer assay (NCI panel), SR; assay type: cell-based; settings: Homo sapiens, leukemia
Description: as §1

[17] = test system: ACHN; assay: In vitro anticancer assay (NCI panel), ACHN; assay type: cell-based; settings: Homo sapiens, renal cancer
Description: as §1

[18] = test system: A549/ATCC; assay: In vitro anticancer assay (NCI panel), A549/ATCC; assay type: cell-based; settings: Homo sapiens, non-small cell lung cancer
Description: as §1

[19] = test system: MDA-MB-435; assay: In vitro anticancer assay (NCI panel), MDA-MB-435; assay type: cell-based; settings: Homo sapiens; MDA-MB-435, breast cancer
Description: as §1

[20] = test system: DU-145; assay: In vitro anticancer assay (NCI panel), DU-145; assay type: cell-based; settings: Homo sapiens; DU-145, prostate cancer
Description: as §1

[21] = test system: SNB-19; assay: In vitro anticancer assay (NCI panel), SNB-19; assay type: cell-based; settings: Homo sapiens; SNB-19, CNS cancer
Description: as §1

[22] = test system: SK-MEL-2; assay: In vitro anticancer assay (NCI panel), SK-MEL-2; assay type: cell-based; settings: Homo sapiens; SK-MEL-2, melanoma
Description: as §1

[23] = test system: COLO 205; assay: In vitro anticancer assay (NCI panel), COLO 205; assay type: cell-based; settings: Homo sapiens; COLO 205, colon cancer
Description: as §1

[24] = test system: OVCAR-5; assay: In vitro anticancer assay (NCI panel), OVCAR-5; assay type: cell-based; settings: Homo sapiens; OVCAR-5, ovarian cancer
Description: as §1

[25] = test system: MDA-MB-231/ATCC; assay: In vitro anticancer assay (NCI panel), MDA-MB-231/ATCC; assay type: cell-based; settings: Homo sapiens, breast cancer
Description: as §1

[26] = test system: 786-0; assay: In vitro anticancer assay (NCI panel), 786-0; assay type: cell-based; settings: Homo sapiens; 786-0, renal cancer
Description: as §1

[27] = target: telomerase (Homo sapiens, UniProt O14746); assay: Telomeric Repeat Amplification Protocol (TRAP) assay, cell-free; settings: 0.5 μg total cell extract from H1299 human lung cancer cells, FIG. 1
Sequence of telomerase (O14746 whole entry): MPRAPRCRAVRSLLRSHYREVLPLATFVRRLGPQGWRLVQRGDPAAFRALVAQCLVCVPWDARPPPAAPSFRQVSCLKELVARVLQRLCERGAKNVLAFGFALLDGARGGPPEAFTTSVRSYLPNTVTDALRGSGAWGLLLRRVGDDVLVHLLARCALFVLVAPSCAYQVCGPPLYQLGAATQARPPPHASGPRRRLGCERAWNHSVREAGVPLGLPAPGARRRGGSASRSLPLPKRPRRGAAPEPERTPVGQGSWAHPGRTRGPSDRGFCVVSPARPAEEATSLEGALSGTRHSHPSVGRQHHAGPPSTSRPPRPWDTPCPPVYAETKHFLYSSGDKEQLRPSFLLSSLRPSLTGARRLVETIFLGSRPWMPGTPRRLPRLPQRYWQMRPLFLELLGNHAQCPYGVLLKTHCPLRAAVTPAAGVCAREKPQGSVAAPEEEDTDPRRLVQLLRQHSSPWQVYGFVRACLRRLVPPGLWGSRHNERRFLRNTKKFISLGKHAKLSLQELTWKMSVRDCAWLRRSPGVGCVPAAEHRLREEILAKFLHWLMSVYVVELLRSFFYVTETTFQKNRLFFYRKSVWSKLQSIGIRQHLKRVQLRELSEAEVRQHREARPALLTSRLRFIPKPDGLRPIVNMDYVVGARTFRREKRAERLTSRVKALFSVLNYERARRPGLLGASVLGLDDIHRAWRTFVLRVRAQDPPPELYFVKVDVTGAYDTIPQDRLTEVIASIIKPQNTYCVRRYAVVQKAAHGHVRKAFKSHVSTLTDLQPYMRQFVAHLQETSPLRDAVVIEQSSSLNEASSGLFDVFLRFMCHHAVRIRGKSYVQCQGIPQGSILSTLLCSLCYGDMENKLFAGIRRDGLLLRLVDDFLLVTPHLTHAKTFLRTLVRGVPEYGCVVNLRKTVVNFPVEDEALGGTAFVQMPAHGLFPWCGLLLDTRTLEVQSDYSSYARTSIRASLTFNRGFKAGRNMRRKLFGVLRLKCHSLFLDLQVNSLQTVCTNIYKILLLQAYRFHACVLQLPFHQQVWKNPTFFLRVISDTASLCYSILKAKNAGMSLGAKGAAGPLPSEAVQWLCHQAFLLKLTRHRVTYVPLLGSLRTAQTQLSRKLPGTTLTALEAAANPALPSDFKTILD

[28] = test system: PC-3; assay: In vitro anticancer assay (NCI panel), PC-3; assay type: cell-based; settings: Homo sapiens; PC-3, prostate cancer
Description: as §1

[29] = test system: human leukemia HL-60 cells; settings: previous studies, read-out: GI50 (50% cell growth inhibition); cited from earlier work

Row | SMILES | GI50 [1] | GI50 [2] | GI50 [3] | GI50 [4] | GI50 [5] | GI50 [6] | GI50 [7] | GI50 [8] | GI50 [9] | GI50 [10] | GI50 [11] | GI50 [12] | GI50 [13] | GI50 [14] | melting point | GI50 [15] | GI50 [16] | GI50 [17] | GI50 [18] | GI50 [19] | further results
1 | Cl.Nc1nc2ccccc2c2[nH]c3ccccc3c12 [Compound 7e, 11H-Indolo[3,2-c]quinolin-6-ylamine hydrochloride] | 13.5 µM | 1.13 µM | 0.62 µM | 0.51 µM | 1.98 µM | 0.5 µM | 1.24 µM | 0.41 µM | 1.05 µM | 1.97 µM | 1.42 µM | 1.03 µM | 1.29 µM | 0.98 µM | 377 to 378 °C | 1.19 µM | 0.64 µM | 0.48 µM | 1.09 µM | 0.94 µM | GI50 [20]: 1.94 µM; GI50 [21]: 1.1 µM; GI50 [22]: 1.54 µM; GI50 [23]: 1.07 µM; GI50 [24]: 1.84 µM; GI50 [25]: 1.22 µM; GI50 [26]: 1.12 µM
2 | Cl.c1ccc2c(c1)nc(NCCCNCCCNc1nc3ccccc3c3[nH]c4ccccc4c13)c1c3ccccc3[nH]c21 [Compound 8a, N,N-bis-[3-(11H-indolo[3,2-c]quinolin-6-yl)aminopropyl]amine hydrochloride] | 0.22 µM | 0.05 µM | 0.04 µM | 0.05 µM | 0.04 µM | 0.17 µM | 0.03 µM | 0.04 µM | 0.07 µM | 0.03 µM | 0.52 µM | 0.1 µM | 0.15 µM | 0.04 µM | 107 to 108 °C | 0.01 µM | 0.03 µM | 0.06 µM | 0.06 µM | 0.85 µM | concentration that completely inhibited telomerase activity [27]: approximately 0.02 nM; GI50 [20]: 0.13 µM; GI50 [21]: 0.07 µM; GI50 [22]: 0.55 µM; GI50 [28]: 0.36 µM; GI50 [23]: 0.18 µM; GI50 [24]: 0.22 µM; GI50 [25]: 0.18 µM; GI50 [26]: 0.07 µM
3 | Cl.OCCNCCNc1nc2ccccc2c2[nH]c3ccccc3c12 [Compound 9, 2-[2-(11H-Indolo[3,2-c]quinolin-6-ylamino)ethylamino]ethanol hydrochloride] | 2 µM | 0.37 µM | 1.55 µM | 0.56 µM | 1.31 µM | 0.19 µM | 1.26 µM | 1.46 µM | 0.44 µM | 1.36 µM | 1.31 µM | 1.41 µM | 1.07 µM | 0.81 µM | 276 °C | 1.24 µM | 0.9 µM | 0.38 µM | 0.98 µM | 1.46 µM | GI50 [20]: 0.74 µM; GI50 [21]: 2.1 µM; GI50 [22]: 2.25 µM; GI50 [28]: 0.88 µM; GI50 [23]: 1.76 µM; GI50 [24]: 0.58 µM; GI50 [25]: 1.24 µM; GI50 [26]: 0.34 µM
4 | CN(C)CCNc1nc2ccccc2c2[nH]c3ccccc3c12 [IQDMA, N′-(11H-indolo[3,2-c]quinolin-6-yl)-N,N-dimethyl-ethane-1,2-diamine] | – | – | – | – | – | – | – | – | – | – | – | – | – | – | – | – | – | – | – | – | GI50 [29]: 1.98 µM
